The test system of experiment [1] is Female ob/ob obese diabetic mice. As to the kind of experiment: Bromocriptine and GBR 12909, alone and combined, 14 days in ob/ob mice (Example 8). The class given is in vivo. The settings on record: bromocriptine 10 mg/kg, GBR 12909 20 mg/kg, daily 14 days, FIG. 10. The method, then:
The effects of adding GBR (a selective dopamine reuptake inhibitor) to bromocriptine (a dopamine D2 receptor agonist that can reduce central norepinephrine neuronal activity) in an effort to circumvent the impact of the D2 receptor agonist effect to reduce endogenous dopamine and to therefore improve metabolic disorders was examined in ob/ob mice treated with either vehicle, bromocriptine (BC) (10 mg/kg), GBR 12909 (20 mg/kg) or bromocriptine (10 mg/kg) plus GBR 12909 (20 mg/kg). Female ob/ob obese diabetic mice were fed standard chow and different groups of animals (n=5-7 group) were treated daily for 14 days with bromocriptine (to reduce norepinephrine neuronal activity) (10 mg/kg), GBR 12909 (to increase dopaminergic neuronal activity) (20 mg/kg) or with bromocriptine (10 mg/kg) plus GBR 12909 (20 mg/kg), or vehicle. […] BC had no effect on blood glucose level. The BC/GBR effect on blood glucose level was more than additive of the individual effects of BC and GBR combined (FIG. 10)

The test system of experiment [2] is mice fed a high fat diet for 20 weeks. The experiment in a line: Bromocriptine and GBR 12909, alone and combined, in high fat diet mice (Example 12). Type of experiment: in vivo. Conditions: bromocriptine 5 mg/kg, GBR 12909 5 mg/kg. The method, then: The effects of adding GBR (a selective dopamine reuptake inhibitor) to bromocriptine (a dopamine D2 receptor agonist that can reduce central norepinephrine neuronal activity) in an effort to circumvent the impact of the D2 receptor agonist effect to reduce endogenous dopamine and to therefore improve metabolic disorders was examined in mice fed a high fat diet for 20 weeks and then treated with either vehicle, bromocriptine (BC) (5 mg/kg), GBR 12909 (5 mg/kg) or bromocriptine (5 mg/kg) plus GBR 12909 (5 mg/kg). […] Again, increasing central dopaminergic neuronal activity and decreasing central norepinephrine neuronal activity simultaneously produces synergistic reductions in metabolic disorders. […] BC alone had no effect on plasma insulin level (FIG. 21).

The structures appear in SMILES notation.

For `CC(C)C[C@H]1C(=O)N2CCC[C@H]2[C@]2(O)O[C@](NC(=O)[C@@H]3C=C4c5cccc6[nH]c(Br)c(c56)C[C@H]4N(C)C3)(C(C)C)C(=O)N12` [bromocriptine], in experiment [1], the blood glucose level result is reported as “no effect”. Besides, the plasma insulin level result in experiment [2] (FIG. 21) is given as “no effect”. Besides, the “HOMA-IR (insulin resistance)” value in experiment [2] (FIG. 22) is recorded as “no significant effect”.

Values taken from patent US9655865B2, “Therapeutic treatment for metabolic syndrome, type 2 diabetes, obesity, or prediabetes” (VeroScience, LLC, priority 2002, dated 2017).
